Assay results as given in patent EP0430045B1, “Ascorbic acid tocopheryl phosphate diesters for inhibition of Maillard's reaction” (Senju Pharmaceutical Co., Ltd., priority 1989, dated 1991).

Molecular target: T1, bovine serum albumine (Bos taurus, UniProt P02769)
T1 construct: purchased Sigma A-8022
Test: Inhibition of furosine formation (non-enzymatic glycosylation of BSA by glucose, Maillard's reaction), furosine determined by HPLC
Format: biochemical
Conditions: inhibition rate of furosine formation; 5 mM test compound, 20 mg/ml BSA, 50 mM glucose, 50 mM phosphate buffer pH 7.3, 4 weeks at 37 °C
Protocol: Sample solutions as shown below were aseptically prepared from bovine serum albumine (No. A-8022, Sigma)(hereinafter referred to as BSA), 50 mM phosphate buffer solution (PH 7.3) and the test compound and aminoguanidine.
Normal sample; 20 mg/ml BSA in buffer solution Control sample: 20 mg/ml BSA and 50 mM glucose in buffer solution Test sample; 20 mg/ml BSA, 50 mM glucose and 5 mM test compound in buffer solution The sample solutions were kept for 4 weeks at 37 °C, and the amount of furosine which was formed by non-enzymatic glycosylation was determined by HPLC according to the method of Schleicher et al. [J. Clin. Biochem., 19:81-87 (1981).] Thus, the sample solutions after reaction were dialyzed, and aliquots of 1 ml were lyophylized and then hydrolyzed by the addition of 1 ml of 6 N hydrochloric acid followed by heating at 100 °C for 20 hours. After removal of hydrochloric acid by evaporation, 1 ml of water was added to each sample, and the samples were subjected to filtration using a filter with the pore size of 0.45 »m. The filtrate was used as the sample for HPLC. […] The absorbance peak whose ratio of peak area at […] was 3.9/1 was regarded as the peak corresponding to furosine.
Upon the area of the peak of furosine of each sample, the inhibition rate of furosine formation by the test compound was calculated as follows. […]

T1 sequence (P02769 25-607): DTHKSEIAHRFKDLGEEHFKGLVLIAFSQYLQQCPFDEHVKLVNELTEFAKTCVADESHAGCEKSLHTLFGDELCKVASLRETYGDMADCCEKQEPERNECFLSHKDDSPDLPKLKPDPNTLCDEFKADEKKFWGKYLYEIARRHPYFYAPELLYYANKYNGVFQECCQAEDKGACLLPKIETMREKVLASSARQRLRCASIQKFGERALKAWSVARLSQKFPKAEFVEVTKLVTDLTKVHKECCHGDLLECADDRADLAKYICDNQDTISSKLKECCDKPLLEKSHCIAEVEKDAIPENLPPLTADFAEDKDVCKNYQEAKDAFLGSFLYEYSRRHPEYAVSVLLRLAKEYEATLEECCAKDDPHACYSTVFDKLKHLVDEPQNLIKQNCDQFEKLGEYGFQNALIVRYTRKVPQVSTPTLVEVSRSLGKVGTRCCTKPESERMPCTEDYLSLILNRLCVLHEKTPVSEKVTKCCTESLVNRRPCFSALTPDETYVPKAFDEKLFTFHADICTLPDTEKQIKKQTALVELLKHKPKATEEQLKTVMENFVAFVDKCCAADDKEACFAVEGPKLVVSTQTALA

Question: How did the inhibition at 5000 µM turn out when `N=C(N)NN` [Aminoguanidine] was run?
Answer: 7.5%
